Where two headings read alike, the source gives them in different places. Marks after values point to notes of the source that are not given here.
Tests used:
IL-6 = assay: LPS induced secretion of IL-6 from whole blood; format: cell-based; settings: human whole blood, LPS 200 ng/mL, n=6; read-out: pIC50, LPS induced IL-6 secretion (converted)
Description: Activation in whole blood of predominantly monocytic cells by agonists of toll-like receptors such as bacterial lipopolysaccharide (LPS) results in production of key inflammatory mediators, including IL-6. Such pathways are widely considered to be central to the pathophysiology of a range of auto-immune and inflammatory disorders.
Human Whole Blood from 2 donors (n=2) is collected using Sodium heparin as anti-coagulent (Wockhardt cat# FP1712) (10 units of heparin/mL of blood). Compounds were prepared as [10 mM] DMSO stocks and then diluted such that the top starting concentration was [1.4 mM] followed by 8×3-fold dilutions in DMSO. Final assay concentrations start at [10 μM] for all compounds. 1 μL diluted compound was added per well in a 96-well U bottom plate. 1 μL DMSO only was added to column 10 (+ve control) and 1-((2S,4R)-2-methyl-4-(phenylamino)-6-(4-(piperidin-1-ylmethyl)phenyl)-3,4-dihydroquinolin-1(2H)-yl)ethanone (for a preparation see Compound 28, J. Med. Chem. 2014, 57, 8111-8131, 1 μL, 1.4 mM) added to column 11 (−ve control). […] 150 μL of 2×MSD Read Buffer T (stock 4×MSD Read Buffer T was diluted 50:50 with de-ionised water) was then added to each well and the plates read on the MSD Sector Imager 6000. Concentration response curves for each compound were generated from the data using internal XC50 analysis and an IC50 value was calculated.

interleukin-6 (IL-6) = assay: LPS induced IL-6 production mouse assay; format: in vivo; settings: male CD1 mice; for IL-6 Cmax: LPS iv 1 hour after dosing
Description: The compound was assayed for its ability to inhibit lipopolysaccharide (LPS) induced interleukin-6 (IL-6) production in mice. Male CD1 mice (Charles River Laboratories, 5 per group) received an intravenous challenge of LPS (100 μg/kg, L3192 E coli 0127:B8) 1 hour after oral administration of compound (in 1% (w/v) methylcellulose, aq 400). Serial blood samples were collected via teil vein up to 4 hours or via cardiac puncture at 6 hours (terminal sample) post oral drug administration and the serum harvested from the blood samples was frozen at −80° C. On the day of analysis, the serum was thawed to room temperature and levels of IL-6 were measured using single-spot cytokine assay plates (K152QXD) from Meso Scale Discovery (MSD, Gaithersburg, Md.). The levels of IL-6 were detected according to the manufacturer's protocol (MSD) and read on a SECTOR imager 6000 (MSD). The mean IL-6 Cmax and AUC0-t values were generated using WinNonlin Phoenix version 6.3 and the mean percent Cmax and AUC0-t IL-6 reduction following treatment with compound was calculated compared to the corresponding vehicle treated group. Levels of significance were calculated by analysis of variance (ANOVA) followed by Dunnett's multiple comparison t-test using Graphpad Prism version 5.04 (Graphpad Software, San Diego, Calif.). Statistical differences were determined as *P<0.05, **P<0.01.

[1] = test system: NUT midline carcinoma cells (11060); assay: Cancer cell line proliferation assay, 11060; format: cell-based; settings: 11060 cells, 72 hours, CellTiter Glo, n = 3
Description: (§1) The impact of the compound of Examples 7 and 14 on cancer cell proliferation was determined using patient derived NUT midline carcinoma cells (11060), multiple myeloma cells (OPM-2, DSMZ) and biphenotypic B myelomonocytic leukaemia cells (MV-4-11, ATCC) in a 72 hour proliferation assay. 11060 and OPM-2 cells were maintained in RPMI 1640 medium (Invitrogen) supplemented with 10% HI-FBS (Heat-Inactivated Fetal Bovine Serum, Hyclone) and 2 mM L-glutamine (Invitrogen) at 37° C. and an atmosphere of 5% CO2. MV-4-11 cells were maintained in IMDM media supplemented with 10% HI-FCS, 2 mM L-glutamine, 1× Non-essential amino acids (Invitrogen) and 1× sodium pyruvate (1 mM) (Invitrogen). Cells were diluted to 1.11×10^5 cells/mL and 90 μL/well plated into black sided, clear bottomed 96 well tissue culture plates (Corning), using growth media supplemented with penicillin/streptomycin (Invitrogen). Cells were incubated overnight at 37° C. and in one plate, ATP levels were measured using the CellTiter Glo assay (Promega) according to the manufacturer's instructions, to give a baseline reading (t=0). 3-fold serial dilutions of compounds ranging from 6 mM to 0.3 μM were prepared in 100% DMSO. The DMSO dilution series was diluted 20-fold in growth media before 10 μl of the resulting dilutions were added to the appropriate wells of the remaining cell plates. The final compound concentrations in the wells ranged from 30 μM to 1.5 nM in 0.5% DMSO. Cells were incubated with compounds for 72 hours before assaying for ATP content using CellTiter Glo (t=72). CellTiter Glo data from each t=72 time point was normalised to the relevant t=0 time point data, and expressed as % t=0.

[2] = test system: biphenotypic B myelomonocytic leukaemia cells (MV-4-11); assay: Cancer cell line proliferation assay, MV-4-11; format: cell-based; settings: Homo sapiens, MV4-11, MV-4-11 cells, 72 hours, CellTiter Glo, n = 3
Description: as §1

hERG = hERG (Homo sapiens, UniProt Q12809); assay: hERG liability
Chain of hERG (Q12809 whole entry): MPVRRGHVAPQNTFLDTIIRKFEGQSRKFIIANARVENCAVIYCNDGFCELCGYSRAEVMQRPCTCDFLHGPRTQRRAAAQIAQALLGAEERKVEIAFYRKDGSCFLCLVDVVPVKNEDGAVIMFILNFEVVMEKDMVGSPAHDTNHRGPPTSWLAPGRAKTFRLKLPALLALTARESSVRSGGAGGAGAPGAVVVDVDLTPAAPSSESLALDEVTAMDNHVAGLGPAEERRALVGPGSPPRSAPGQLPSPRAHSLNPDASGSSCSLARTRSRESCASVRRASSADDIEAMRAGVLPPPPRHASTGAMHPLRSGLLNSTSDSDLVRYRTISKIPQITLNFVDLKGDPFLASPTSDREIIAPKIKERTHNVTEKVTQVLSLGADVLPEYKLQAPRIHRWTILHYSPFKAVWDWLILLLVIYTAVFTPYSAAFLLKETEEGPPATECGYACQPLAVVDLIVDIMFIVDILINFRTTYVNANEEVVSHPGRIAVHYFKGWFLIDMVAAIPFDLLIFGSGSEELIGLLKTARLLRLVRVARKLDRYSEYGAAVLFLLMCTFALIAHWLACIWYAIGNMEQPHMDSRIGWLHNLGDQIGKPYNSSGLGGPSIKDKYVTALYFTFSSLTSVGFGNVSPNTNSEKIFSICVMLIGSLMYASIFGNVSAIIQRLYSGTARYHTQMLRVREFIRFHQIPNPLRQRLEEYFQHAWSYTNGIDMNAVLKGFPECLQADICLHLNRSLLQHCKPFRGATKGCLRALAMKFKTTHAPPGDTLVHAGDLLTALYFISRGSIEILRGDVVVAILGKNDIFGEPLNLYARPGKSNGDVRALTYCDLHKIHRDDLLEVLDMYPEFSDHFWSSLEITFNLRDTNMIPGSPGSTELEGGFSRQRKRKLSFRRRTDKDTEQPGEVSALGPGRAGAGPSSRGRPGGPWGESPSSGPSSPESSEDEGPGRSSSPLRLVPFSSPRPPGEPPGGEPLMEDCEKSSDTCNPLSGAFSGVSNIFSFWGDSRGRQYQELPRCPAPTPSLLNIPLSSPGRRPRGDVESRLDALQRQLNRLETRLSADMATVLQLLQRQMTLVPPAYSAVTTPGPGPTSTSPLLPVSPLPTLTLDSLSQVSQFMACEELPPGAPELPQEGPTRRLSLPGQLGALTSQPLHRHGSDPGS

[3] = full curve fit, read-out: Cellular Proliferation: pIC50 (converted)
[4] = read-out: Cellular Proliferation: gpIC50 (converted)

IC50 (IL-6): 200 nM
IC50 [1, 3]: 1000 nM
IC50 [1, 4]: 631 nM
IC50 [2, 3]: 316 nM
IC50 [2, 4]: 251 nM
SMILES: CC(=O)N1c2ccc(C(N)=O)cc2[C@H](Nc2ncc(Cl)cn2)C[C@@H]1C [Example 14, (2S,4R)-1-acetyl-4-((5-chloropyrimidin-2-yl)amino)-2-methyl-1,2,3,4-tetrahydroquinoline-6-carboxamide]
% reduction in IL-6 AUC from vehicle (interleukin-6 (IL-6); 1 mg/kg oral): 49* %
% reduction in IL-6 Cmax from vehicle (interleukin-6 (IL-6); 1 mg/kg oral): 58%
IL-6 AUC0-t (interleukin-6 (IL-6); 1 mg/kg oral): 554 ng·h/mL
IL-6 Cmax (interleukin-6 (IL-6); 1 mg/kg oral): 291 ng/mL
% reduction in IL-6 AUC from vehicle (interleukin-6 (IL-6); 3 mg/kg oral): 55** %
% reduction in IL-6 Cmax from vehicle (interleukin-6 (IL-6); 3 mg/kg oral): 48%
IL-6 AUC0-t (interleukin-6 (IL-6); 3 mg/kg oral): 495 ng·h/mL
IL-6 Cmax (interleukin-6 (IL-6); 3 mg/kg oral): 357 ng/mL
% reduction in IL-6 AUC from vehicle (interleukin-6 (IL-6); 10 mg/kg oral): 48* %
% reduction in IL-6 Cmax from vehicle (interleukin-6 (IL-6); 10 mg/kg oral): 62* %
IL-6 AUC0-t (interleukin-6 (IL-6); 10 mg/kg oral): 563 ng·h/mL
IL-6 Cmax (interleukin-6 (IL-6); 10 mg/kg oral): 258 ng/mL
hERG liability (hERG): no hERG liability
